# Target: T1, PEDV RdRp (Nsp12) (Porcine epidemic diarrhea virus, UniProt K4NS01)
# T1 sequence (K4NS01 4101-5027): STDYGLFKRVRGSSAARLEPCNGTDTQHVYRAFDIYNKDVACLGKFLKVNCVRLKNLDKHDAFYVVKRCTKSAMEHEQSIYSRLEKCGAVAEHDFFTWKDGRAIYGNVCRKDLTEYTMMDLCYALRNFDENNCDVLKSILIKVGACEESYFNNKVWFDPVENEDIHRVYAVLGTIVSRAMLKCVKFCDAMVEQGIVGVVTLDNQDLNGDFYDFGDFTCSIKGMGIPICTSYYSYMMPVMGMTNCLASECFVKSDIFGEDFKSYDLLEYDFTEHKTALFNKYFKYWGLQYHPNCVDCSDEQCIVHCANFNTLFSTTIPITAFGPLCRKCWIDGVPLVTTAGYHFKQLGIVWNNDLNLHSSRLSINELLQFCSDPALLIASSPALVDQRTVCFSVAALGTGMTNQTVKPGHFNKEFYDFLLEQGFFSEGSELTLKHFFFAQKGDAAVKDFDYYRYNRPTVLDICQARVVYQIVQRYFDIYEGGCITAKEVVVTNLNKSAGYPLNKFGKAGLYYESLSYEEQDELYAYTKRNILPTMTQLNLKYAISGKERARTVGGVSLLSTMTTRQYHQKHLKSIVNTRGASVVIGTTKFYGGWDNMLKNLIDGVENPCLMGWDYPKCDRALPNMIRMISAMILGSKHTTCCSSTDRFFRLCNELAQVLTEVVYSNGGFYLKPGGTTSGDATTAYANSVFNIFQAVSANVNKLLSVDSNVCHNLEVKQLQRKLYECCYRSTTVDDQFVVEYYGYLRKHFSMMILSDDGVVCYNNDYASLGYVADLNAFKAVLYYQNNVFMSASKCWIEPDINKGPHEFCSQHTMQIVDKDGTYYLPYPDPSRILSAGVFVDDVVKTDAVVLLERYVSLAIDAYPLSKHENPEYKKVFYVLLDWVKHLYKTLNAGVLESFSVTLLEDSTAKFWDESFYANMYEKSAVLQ
# Experiment: CoV-RdRp-Gluc luciferase reporter assay in transfected HEK-293T cells
# Assay type: cell-based
smiles,measurement,value
CC(C)/N=c1\cc2n(-c3ccc(Cl)cc3)c3ccccc3nc-2cc1Nc1ccc(Cl)cc1 [clofazimine],IC50,136 nM

# Source: article PMC12282428 (Virologica Sinica, 2025)
